PubChem BioAssay AID256 (DTP/NCI, 2004)
Toxic doses and inconclusive results are not listed.

System: CD2F1 mice, L1210 leukemia ip, survival T/C
Assay: NCI In Vivo Anticancer Drug Screen. Data for tumor model L1210 Leukemia (intraperitoneal) in CD2F1 (CDF1) mice
Conditions: higher = longer survival
Outline: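 In this screen, transplantable tumors were grown in mice given either the compound or its vehicle. Results were expressed as the treated measurement relative to the control measurement.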

[1] = endpoint: mean survival time, dose: 100.0 mg/kg/injection, schedule: Q04DX003 (ip), vehicle: saline with Tween-80
[2] = endpoint: mean survival time, dose: 200.0 mg/kg/injection, schedule: Q04DX003 (ip), vehicle: saline with Tween-80
[3] = endpoint: mean survival time, dose: 400.0 mg/kg/injection, schedule: Q04DX003 (ip), vehicle: saline with Tween-80

In the case of `O=C(COc1ccccc1)N(/N=C/c1ccccc1)C(=O)c1ccccc1`, the T/C (endpoint: mean survival time, dose: 100.0 mg/kg/injection, schedule: Q01DX009 (ip), vehicle: Klucel (hydroxypropylcellulose) (HPC)) is reported as 96 % of control, the T/C (endpoint: mean survival time, dose: 100.0 mg/kg/injection, schedule: Q04DX003 (ip), vehicle: Klucel (hydroxypropylcellulose) (HPC)) is reported as 94 % of control and the T/C (endpoint: mean survival time, dose: 200.0 mg/kg/injection, schedule: Q01DX009 (ip), vehicle: Klucel (hydroxypropylcellulose) (HPC)) is reported as 96 % of control. For the same molecule, the T/C (endpoint: mean survival time, dose: 200.0 mg/kg/injection, schedule: Q04DX003 (ip), vehicle: Klucel (hydroxypropylcellulose) (HPC)) was 92 % of control, the T/C (endpoint: mean survival time, dose: 400.0 mg/kg/injection, schedule: Q01DX009 (ip), vehicle: Klucel (hydroxypropylcellulose) (HPC)) was 89 % of control and the T/C (endpoint: mean survival time, dose: 400.0 mg/kg/injection, schedule: Q04DX003 (ip), vehicle: Klucel (hydroxypropylcellulose) (HPC)) was 94 % of control.
`COc1cc2c(cc1OC)C(C#N)N(C(=O)c1ccccc1)C=C2` (stereo not drawn) was tested, and the T/C (endpoint: mean survival time, dose: 25.0 mg/kg/injection, schedule: Q01DX009 (ip), vehicle: water) was 93 % of control, the T/C (endpoint: mean survival time, dose: 50.0 mg/kg/injection, schedule: Q01DX009 (ip), vehicle: water) was 100 % of control and the T/C (endpoint: mean survival time, dose: 100.0 mg/kg/injection, schedule: Q01DX009 (ip), vehicle: water) was 93 % of control. The T/C (endpoint: mean survival time, dose: 200.0 mg/kg/injection, schedule: Q01DX009 (ip), vehicle: water) was 94 % of control and the T/C (endpoint: mean survival time, dose: 400.0 mg/kg/injection, schedule: Q01DX009 (ip), vehicle: water) was 86 % of control.
`CCOC(=O)Nc1cc(N)c2[nH]cnc2n1` was tested, and the T/C (endpoint: mean survival time, dose: 100.0 mg/kg/injection, schedule: Q01DX001 (ip), vehicle: carboxymethylcellulose (CMC)) was 96 % of control.
`CO[C@@]12[C@@H]3N[C@@H]3CN1c1c(O)c(C)c(N=C3N=NC(=S)S3)c(O)c1[C@@H]2COC(N)=O` was tested, and the T/C (endpoint: mean survival time, dose: 1.5 mg/kg/injection, schedule: Q01DX001 (ip), vehicle: distilled water + Tween-80) was 98 % of control, the T/C (endpoint: mean survival time, dose: 3.0 mg/kg/injection, schedule: Q01DX001 (ip), vehicle: distilled water + Tween-80) was 98 % of control and the T/C (endpoint: mean survival time, dose: 6.0 mg/kg/injection, schedule: Q01DX001 (ip), vehicle: distilled water + Tween-80) was 98 % of control. For the same molecule, the T/C (endpoint: mean survival time, dose: 12.0 mg/kg/injection, schedule: Q01DX001 (ip), vehicle: distilled water + Tween-80) was 102 % of control, the T/C (endpoint: mean survival time, dose: 24.0 mg/kg/injection, schedule: Q01DX001 (ip), vehicle: distilled water + Tween-80) was 110 % of control and the T/C (endpoint: mean survival time, dose: 48.0 mg/kg/injection, schedule: Q01DX001 (ip), vehicle: saline with Tween-80) was 100 % of control. For the same molecule, the T/C (endpoint: mean survival time, dose: 96.0 mg/kg/injection, schedule: Q01DX001 (ip), vehicle: saline with Tween-80) was 110 % of control.
For `C[S+](C)(=O)/C=C(\[O-])Nc1ccc(Cl)c(Cl)c1`, the T/C [1] was 103 % of control, the T/C [2] was 90 % of control and the T/C [3] was 91 % of control.
For `Clc1ccc([I+]c2ccc(Cl)cc2)cc1`, the T/C (endpoint: median survival time, dose: 25.0 mg/kg/injection, schedule: Q04DX002 (ip), vehicle: saline with Tween-80) was 102 % of control, the T/C (endpoint: median survival time, dose: 50.0 mg/kg/injection, schedule: Q04DX002 (ip), vehicle: saline with Tween-80) was 98 % of control and the T/C (endpoint: median survival time, dose: 100.0 mg/kg/injection, schedule: Q04DX002 (ip), vehicle: saline with Tween-80) was 91 % of control.
For `Cc1nc2ccccc2n1C`, the T/C (endpoint: mean survival time, dose: 25.0 mg/kg/injection, schedule: Q01DX009 (ip), vehicle: saline with Tween-80) was 105 % of control, the T/C (endpoint: mean survival time, dose: 50.0 mg/kg/injection, schedule: Q01DX009 (ip), vehicle: saline with Tween-80) was 96 % of control and the T/C (endpoint: mean survival time, dose: 100.0 mg/kg/injection, schedule: Q01DX009 (ip), vehicle: saline with Tween-80) was 104 % of control.
For `CCCCOC(=O)c1ccccc1C(=O)O.[Cu+2]`, the T/C (endpoint: mean survival time, dose: 6.25 mg/kg/injection, schedule: Q01DX001 (ip), vehicle: saline with Tween-80) was 100 % of control, the T/C (endpoint: mean survival time, dose: 12.5 mg/kg/injection, schedule: Q01DX001 (ip), vehicle: saline with Tween-80) was 96 % of control and the T/C (endpoint: mean survival time, dose: 25.0 mg/kg/injection, schedule: Q01DX001 (ip), vehicle: saline with Tween-80) was 103 % of control.
In the case of `O=C1NC(=S)S/C1=C\c1ccc(Cl)c(Cl)c1`, the T/C [1] is reported as 106 % of control, the T/C [2] is reported as 94 % of control and the T/C [3] is reported as 97 % of control.
For `Cn1c(=O)[nH]c2c(nc(-c3ccccc3)n2C)c1=O`, the T/C (endpoint: mean survival time, dose: 12.5 mg/kg/injection, schedule: Q01DX005 (ip), vehicle: other) was 87 % of control, the T/C (endpoint: mean survival time, dose: 25.0 mg/kg/injection, schedule: Q01DX005 (ip), vehicle: other) was 96 % of control and the T/C (endpoint: mean survival time, dose: 50.0 mg/kg/injection, schedule: Q01DX005 (ip), vehicle: other) was 89 % of control. The T/C (endpoint: mean survival time, dose: 100.0 mg/kg/injection, schedule: Q01DX005 (ip), vehicle: other) was 94 % of control.
`COc1ccc(C(N)=O)cc1N=NN(C)C` was tested, and the T/C (endpoint: mean survival time, dose: 37.5 mg/kg/injection, schedule: Q01DX009 (ip), vehicle: Klucel (hydroxypropylcellulose) (HPC)) was 158 % of control and the T/C (endpoint: mean survival time, dose: 75.0 mg/kg/injection, schedule: Q01DX009 (ip), vehicle: Klucel (hydroxypropylcellulose) (HPC)) was 109 % of control.
`CC(=O)C1C(=O)C(=O)OC1C` (stereo not drawn) was tested, and the T/C (endpoint: mean survival time, dose: 50.0 mg/kg/injection, schedule: Q01DX009 (ip), vehicle: saline) was 102 % of control, the T/C (endpoint: mean survival time, dose: 100.0 mg/kg/injection, schedule: Q01DX009 (ip), vehicle: saline) was 98 % of control and the T/C (endpoint: mean survival time, dose: 200.0 mg/kg/injection, schedule: Q01DX009 (ip), vehicle: saline) was 101 % of control.
